Measured values from article PMC5557796, “Ligand binding modes from low resolution GPCR models and mutagenesis: chicken bitter taste receptor as a test-case” (Scientific Reports, 2017).

Assays:
ggTas2r1 [1] = target: T1, ggTas2r1 (Gallus gallus, UniProt Q2AB83); assay: FLIPR calcium mobilization, Fluo4-AM; format: cell-based; details: agonist, HEK 293T with Galpha16gust44
T1 construct: gene TAS2R40; full-length receptor with in-frame N-terminal sst3-tag and C-terminal hsv-tag in pcDNA5/FRT; transient in HEK 293T stably expressing chimeric Galpha16gust44
T1 sequence (Q2AB83 1-311): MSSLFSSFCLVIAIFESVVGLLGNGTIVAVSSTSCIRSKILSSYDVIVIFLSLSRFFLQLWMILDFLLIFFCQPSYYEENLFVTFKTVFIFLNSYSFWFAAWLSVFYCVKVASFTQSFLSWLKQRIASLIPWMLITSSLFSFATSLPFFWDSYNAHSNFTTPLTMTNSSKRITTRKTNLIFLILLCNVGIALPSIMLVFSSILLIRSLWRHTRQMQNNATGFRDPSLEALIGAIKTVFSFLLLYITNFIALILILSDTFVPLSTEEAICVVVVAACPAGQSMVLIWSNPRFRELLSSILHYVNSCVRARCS

ggTas2r1 [2] = target: T1, ggTas2r1; assay: FLIPR calcium mobilization, Fluo4-AM; format: cell-based; details: agonist; HEK 293T with Galpha16gust44; 2.5 mM probenecid in dye loading

Row | Structure (SMILES) | dose-response ΔF/F (ggTas2r1 [1]) | further results
1 | CN(C)CCC(c1ccc(Cl)cc1)c1ccccn1 (stereo not drawn) [chlorpheniramine] | The functional data for receptor constructs stimulated with chlorpheniramine ranges from wild-type like receptor | –
2 | O=c1ccc2ccccc2o1 [coumarin] | The small compound coumarin is only a weak agonist for ggTas2r1 | –
3 | C=C[C@H]1CN2CC[C@H]1C[C@H]2[C@H](O)c1ccnc2ccc(OC)cc12 [quinine] | – | dose-response ΔF/F (ggTas2r1 [1]; tested as quinine sulfate): subjected to calcium-mobilization assays using different concentrations of quinine sulfate
4 | C=C[C@H]1CN2CC[C@H]1C[C@@H]2[C@@H](O)c1ccnc2ccc(OC)cc12 [quinidine] | – | threshold concentration (ggTas2r1 [2]): ~ 0.3 µM
5 | O=C(N[C@H](CO)[C@H](O)c1ccc([N+](=O)[O-])cc1)C(Cl)Cl [chloramphenicol] | at high chloramphenicol concentration the maximal signal amplitude is comparable to the native receptor | –
6 | OC(CCCN1CCCCC1)(c1ccccc1)c1ccccc1 [diphenidol] | variable decrease in responses compared to the wild-type ggTas2r1 upon stimulation with diphenidol | –
